How the values were obtained:
Type in all cases: functional, cell-based
U-937 = experiment: Antiproliferative activity against human U937 cells after 96 hrs by celltiter-glo luminescent cell viability assay; settings: U-937, 96 h
A2780 = experiment: Antiproliferative activity against human A2780 cells after 96 hrs by celltiter-glo luminescent cell viability assay; settings: A2780, 96 h
KB = experiment: Antiproliferative activity against human KB cells
[1] = Antiproliferative activity against HSG cells; settings: Homo sapiens

Structure (SMILES)	IC50 (U-937)	IC50 (A2780)	IC50 (KB)	IC50 [1]
C[C@H]1O[C@@H](O[C@H]2CC[C@]3(CO)[C@H]4[C@H](O)C[C@]5(C)[C@@H](C6=CC(=O)OC6)CC[C@]5(O)[C@@H]4CC[C@]3(O)C2)[C@H](O)[C@H](O)[C@@H]1O[C@@H]1O[C@H](CO)[C@@H](O)[C@@H](O)[C@H]1O [ELAEODENDROSIDE V]	150 nM	120 nM		
C[C@H]1O[C@@H](O[C@H]2CC[C@]3(C=O)[C@H]4[C@H](O)C[C@]5(C)[C@@H](C6=CC(=O)OC6)CC[C@]5(O)[C@@H]4CC[C@]3(O)C2)[C@H](O)[C@H](O)[C@H]1O			74 nM	
C[C@H]1O[C@@H](O[C@H]2[C@H](O)[C@H](O)[C@H](O[C@H]3CC[C@]4(C=O)[C@H]5[C@H](O)C[C@]6(C)[C@@H](C7=CC(=O)OC7)CC[C@]6(O)[C@@H]5CC[C@]4(O)C3)O[C@@H]2C)[C@@H](O)[C@@H](O)[C@@H]1O				49 nM
C[C@H]1O[C@@H](O[C@H]2CC[C@]3(C=O)[C@H]4[C@H](O)C[C@]5(C)[C@@H](C6=CC(=O)OC6)CC[C@]5(O)[C@@H]4CC[C@]3(O)C2)[C@H](O)[C@H](O)[C@@H]1O[C@@H]1O[C@H](CO)[C@@H](O)[C@@H](O)[C@H]1O [ELAEODENDROSIDE W]	80 nM	70 nM		

Source: ChEMBL document CHEMBL1153896, “Antiproliferative cardenolide glycosides of Elaeodendron alluaudianum from the Madagascar Rainforest” (Bioorg Med Chem, 2009)
